Results reported in patent US5756327A, “Recombinant mycobacterial isoleucyl-tRNA synthetase genes, tester strains and assays” (priority 1995, dated 1998).

Legend:
[1] = test system: E. coli DH5α cells expressing the M. tuberculosis IleRS gene (on pKS-56); assay type: cell-based
E. coli IleRS = conditions: Hughes and Mellows, Biochem. J. 176:305-318 (1978); cited from earlier work
[2] = test system: DH5α cells expressing wild-type IleRS on a plasmid (pKS21); assay: Pseudomonic acid (PMA) rescue, growth in liquid culture (A600); assay type: cell-based, E. coli; conditions: LB plus ampicillin media containing 40 μg/ml PMA; 30° C., 36-40 hours
[3] = test system: E. coli cells with the TB GST-IleRS fusion construct, pGX-56; assay type: cell-based; conditions: as for pKS-56: 40 μg/ml PMA, LB plus ampicillin

**Q.** Which inhibition of growth ([1]; LB plus ampicillin media containing 40 μg/ml PMA, 30° C., 36-40 hours) does the source give for `C/C(=C\C(=O)OCCCCCCCCC(=O)O)C[C@@H]1OC[C@H](C[C@@H]2O[C@H]2[C@@H](C)[C@H](C)O)[C@@H](O)[C@H]1O` [PMA, pseudomonic acid A] here?
**A.** no inhibition of growth

**Q.** What about the “growth at highest concentration tested” value ([1]; LB plus ampicillin with 640 μg/ml PMA (higher concentrations were not tested)) of the same molecule?
**A.** continued to grow

**Q.** What about the “sensitivity of E. coli IleRS to PMA” value (E. coli IleRS) of the same molecule?
**A.** extremely sensitive

**Q.** And the inhibition of growth [2]?
**A.** completely inhibited

**Q.** And the inhibition of growth [3]?
**A.** Identical results
